What all share (test): growth of human tumour cells (NCI), 48 h
For assay [1], the system named is HT29 colon.
Assay [2] has as its system M14 melanoma.
Assay [3] deals with MALME-3M melanoma.
For assay [4], the system named is MDA-MB-231 breast.
Assay [5] relates to NCI-H226 lung.
In assay [6] the test system is OVCAR-3 ovarian.
Assay [7] has as its system RPMI-8226 leukemia.
The test system of assay [8] is SF-295 CNS.
In assay [9] the test system is SF-539 CNS.
For assay [10], the system named is T-47D breast.

Consider 14 compounds from PubChem BioAssay (NCI).

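Following 48 hours of exposure in 96-well plates, responses at five concentrations were used to interpolate endpoints linearly. TGI: total growth inhibition.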

For the compound `COc1ccc(/[N+]([O-])=C/c2ccccc2OC(=S)S)cc1`, the TGI in assay [1] was 49.7 µM; in assay [2] it was 91.5 µM; in assay [3], more than 100 µM; in assay [4] it was more than 100 µM; in [5], more than 100 µM; in assay [6], more than 100 µM. For the same compound, the TGI is 61 µM in [7], more than 100 µM in assay [8], 52 µM in [9] and more than 100 µM in assay [10].
Consider `CC(C)[C@H](NC(=O)OCc1ccccc1)C(=O)N[C@H](/C=C/C(=O)OC(C)(C)C)CO`, for which the TGI in [1], in [2], in assay [3], in assay [4], in assay [5] and in assay [6] was more than 100 µM in each case. Also, the TGI in [8], in assay [9] and in [10] was more than 100 µM in each case.
In the case of `O=C1c2sccc2C(=O)c2c(CO)csc21`, the TGI was determined as 9.55 µM in assay [1]; 7.55 µM in assay [2]; 6.71 µM in [3]; 50.1 µM in assay [4]; 15 µM in assay [5]; 6.3 µM in [6]. The TGI in assay [7] is more than 100 µM; in assay [8], 8.04 µM; in assay [9], 14.8 µM; in [10], 17.5 µM.
Take `CNC(=O)N(C)C(=O)c1ccccc1C(=O)N(C)C(=O)NC`: the TGI in [1], in assay [2], in assay [3], in assay [4], in [5] and in assay [6] was more than 10 µM throughout. Moreover, the TGI in assay [7], in [8], in assay [9] and in assay [10] was more than 10 µM throughout.
Consider `CCOC(=O)C(NC(=O)c1cccc(Cl)c1)(N1CCN(c2cc3c(cc2F)c(=O)c(C(=O)O)cn3CC)CC1)C(F)(F)F` (configuration not stated), for which the TGI in assay [1] amounted to 42.5 µM; in assay [2] it was 31.9 µM; in assay [3], 32.4 µM; in [4], 36.3 µM; in assay [5] it was 40.1 µM; in assay [6], 38.2 µM. The TGI in [7] was 62.8 µM; in assay [8] it was 40 µM; in [9] it was 30.2 µM; in assay [10], 51.4 µM.
In the case of `CC(C)S1=C2C(=O)CC(C)(C)CC2=Nc2ccccc21` (configuration not stated), the TGI in assay [1], in assay [2], in assay [3], in [4], in assay [5] and in assay [6] was more than 100 µM each time. Besides, the TGI in assay [7], in [8] and in assay [10] was more than 100 µM each time.
With `CN1Cc2c(ccc3c2OCO3)[C@@H]2[C@H](O)Cc3cc4c(cc3[C@@H]21)OCO4`, the TGI in [1] was 5.12 µM; in assay [2] it was more than 28.4 µM; in assay [3], more than 100 µM; in assay [4], 24.6 µM; in assay [5], 9.94 µM; in assay [6], more than 100 µM. For the same compound, the TGI in assay [7] is more than 37.4 µM; in assay [8], 21.6 µM; in [9], 4.6 µM; in assay [10], more than 100 µM.
For `Clc1cc2ncn(C3CCCO3)c2cc1Cl` (configuration not stated), the TGI in assay [1], in [2], in assay [3], in assay [4], in assay [5] and in assay [6] was more than 100 µM in each case. The TGI in [7], in assay [8], in assay [9] and in [10] was more than 100 µM in each case.
`C(/Cc1ccc2c(c1)OCO2)=N\NC1=NCCCCN1`: the TGI is more than 100 µM in assay [1]; 35.1 µM in [2]; more than 100 µM in [3]; more than 100 µM in assay [4]; more than 100 µM in assay [5]; more than 100 µM in assay [6]. Also, the TGI in assay [7], in assay [8], in assay [9] and in assay [10] was more than 100 µM each time.
With `COc1ccc(N=C(SSC(=Nc2ccc(OC)cc2)c2ccc([N+](=O)[O-])o2)c2ccc([N+](=O)[O-])o2)cc1`, the TGI in assay [1] was 5.53 µM; in [2], 4.98 µM; in [3], 4.14 µM; in [4], 7.33 µM; in assay [5] it was 37.3 µM; in assay [6], 2.6 µM. Besides, the TGI in assay [7] is more than 100 µM; in assay [8], 6.14 µM; in [9] it was more than 21.9 µM; in assay [10] it was 4.2 µM.
On to `CCOC(=O)c1sc2nc(SC)nc3c2c1NCN3c1ccccc1Cl`, for which the TGI was more than 100 µM in [1]; more than 100 µM in [2]; 74.4 µM in assay [3]; more than 100 µM in [4]; more than 100 µM in [5]; more than 100 µM in assay [6]. In addition, the results for the TGI in assay [7], in assay [8] and in assay [10] were more than 100 µM, more than 100 µM and 60.3 µM, respectively.
As for `CCOC(=O)c1c(SCCN(CC)CC)n(-c2ccccc2)c(=S)n(-c2ccccc2)c1=O`, the TGI in assay [1] was 12.6 µM; in [2], 3.13 µM; in [3] it was 3.06 µM; in [4], 9.04 µM; in assay [5], 41.1 µM; in assay [6], 3.36 µM. Moreover, the TGI is 3.87 µM in [7], more than 100 µM in assay [8], 9.11 µM in assay [9] and 15.3 µM in [10].
For the compound `CCc1n[nH]c(=O)n1-c1ccncc1`, the TGI in assay [1], in assay [2], in assay [3], in assay [4], in assay [5] and in assay [6] was more than 100 µM each time. Further, the TGI in assay [7], in assay [8], in assay [9] and in [10] was more than 100 µM in each case.
As for `Nc1nc2c(ccc3ccccc32)[nH]1`, the TGI in [1], in assay [2], in [3], in assay [4], in assay [5] and in assay [6] was more than 10 µM throughout. Also, the TGI in assay [7], in assay [8], in [9] and in assay [10] was more than 10 µM each time.
